Source: ChEMBL document CHEMBL4715742, “Design, synthesis and cytotoxic activities of novel 2,5-diketopiperazine derivatives” (Eur J Med Chem, 2016)

Tests used:
K562 [1] = assay: Cytotoxicity against human K562 cells assessed as cell viability at 1.1 uM measured after 48 hrs by CCK8 assay relative to control; format: functional; settings: read-out: Activity
U-937 [2] = assay: Induction of apoptosis in human U-937 cells assessed as viable cells at 2 uM measured after 24 hrs by annexinV/FITC-propidium iodide staining based flow cytometry (reference value: 95 to 95.1 %); format: functional; settings: read-out: Activity
U-937 [3] = assay: Induction of apoptosis in human U-937 cells assessed as late apoptotic cells at 0.5 uM measured after 48 hrs by annexinV/FITC-propidium iodide staining based flow cytometry (reference value: 3.27 to 3.41 %); format: functional
U-937 [4] = assay: Cytotoxicity against human U-937 cells assessed as cell viability at 1.1 uM measured after 48 hrs by CCK8 assay relative to control; format: functional; settings: read-out: Activity
U-937 [5] = assay: Cytotoxicity against human U-937 cells assessed as cell viability at 1.1 uM measured after 24 hrs by CCK8 assay relative to control; format: functional; settings: read-out: Activity
U-937 [6] = assay: Cytotoxicity against human U-937 cells assessed as cell viability at 0.37 uM measured after 72 hrs by CCK8 assay relative to control; format: functional; settings: read-out: Activity
U-937 [7] = assay: Induction of apoptosis in human U-937 cells assessed as viable cells at 2 uM measured after 48 hrs by annexinV/FITC-propidium iodide staining based flow cytometry (reference value: 93.7 to 94.2 %); format: functional; settings: read-out: Activity
DU-145 = assay: Cytotoxicity against human DU-145 cells assessed as reduction in cell viability measured after 72 hrs by CCK8 assay; format: functional, cell-based; settings: Homo sapiens, DU-145, 72 h; read-out: IC50
U-937 [8] = assay: Cytotoxicity against human U-937 cells assessed as reduction in cell viability measured after 72 hrs by CCK8 assay; format: functional, cell-based; settings: Homo sapiens, U-937, 72 h; read-out: IC50
HT-29 = assay: Cytotoxicity against human HT-29 cells assessed as reduction in cell viability measured after 72 hrs by CCK8 assay; format: functional, cell-based; settings: Homo sapiens, HT-29, 72 h; read-out: IC50
U-937 [9] = assay: Induction of apoptosis in human U-937 cells assessed as viable cells at 1 uM measured after 48 hrs by annexinV/FITC-propidium iodide staining based flow cytometry (reference value: 93.7 to 94.2 %); format: functional; settings: read-out: Activity
U-937 [10] = assay: Induction of apoptosis in human U-937 cells assessed as viable cells at 0.5 uM measured after 24 hrs by annexinV/FITC-propidium iodide staining based flow cytometry (reference value: 95 to 95.1 %); format: functional; settings: read-out: Activity
U-937 [11] = assay: Cytotoxicity against human U-937 cells assessed as cell viability at 3.3 uM measured after 48 hrs by CCK8 assay relative to control; format: functional; settings: read-out: Activity
A549 = assay: Cytotoxicity against human A549 cells assessed as reduction in cell viability measured after 72 hrs by CCK8 assay; format: functional, cell-based; settings: Homo sapiens, A549, 72 h; read-out: IC50
K562 [12] = assay: Cytotoxicity against human K562 cells assessed as cell viability at 3.3 uM measured after 48 hrs by CCK8 assay relative to control; format: functional; settings: read-out: Activity
K562 [13] = assay: Cytotoxicity against human K562 cells assessed as cell viability at 1.1 uM measured after 72 hrs by CCK8 assay relative to control; format: functional; settings: read-out: Activity
U-937 [14] = assay: Induction of apoptosis in human U-937 cells assessed as apoptotic ratio at 0.5 uM measured after 48 hrs by annexinV/FITC-propidium iodide staining based flow cytometry (reference value: 5.2 +/- 0.2 %); format: functional
U-937 [15] = assay: Induction of apoptosis in human U-937 cells assessed as early apoptotic cells at 0.5 uM measured after 48 hrs by annexinV/FITC-propidium iodide staining based flow cytometry (reference value: 1.78 to 1.88 %); format: functional
U-937 [16] = assay: Induction of apoptosis in human U-937 cells assessed as late apoptotic cells at 2 uM measured after 24 hrs by annexinV/FITC-propidium iodide staining based flow cytometry (reference value: 2.18 to 2.22 %); format: functional
U-937 [17] = assay: Cytotoxicity against human U-937 cells assessed as cell viability at 3.3 uM measured after 24 hrs by CCK8 assay relative to control; format: functional; settings: read-out: Activity
U-937 [18] = assay: Induction of apoptosis in human U-937 cells assessed as viable cells at 1 uM measured after 24 hrs by annexinV/FITC-propidium iodide staining based flow cytometry (reference value: 95 to 95.1 %); format: functional; settings: read-out: Activity
U-937 [19] = assay: Induction of apoptosis in human U-937 cells assessed as early apoptotic cells at 2 uM measured after 48 hrs by annexinV/FITC-propidium iodide staining based flow cytometry (reference value: 1.78 to 1.88 %); format: functional
U-937 [20] = assay: Induction of apoptosis in human U-937 cells assessed as necrotic cells at 2 uM measured after 24 hrs by annexinV/FITC-propidium iodide staining based flow cytometry (reference value: 1.12 to 1.48 %); format: functional

SMILES: C=CCn1c(=O)/c(=C/CCCC)[nH]c(=O)/c1=C/c1ccc(OC)cc1
- viability at 1.1 µM (K562 [1]): 28.7%
- viability at 2 µM (U-937 [2]): 77.9%
- Activity (U-937 [3]): 8.32%
- viability at 1.1 µM (U-937 [4]): 8.8%
- viability at 1.1 µM (U-937 [5]): 17.4%
- viability at 0.37 µM (U-937 [6]): 58.7%
- viability at 2 µM (U-937 [7]): 52.7%
- IC50 (DU-145): 1700 nM
- IC50 (U-937 [8]): 360 nM
- IC50 (HT-29): 1200 nM
- viability at 1 µM (U-937 [9]): 73.1%
- viability at 0.5 µM (U-937 [10]): 88.4%
- viability at 3.3 µM (U-937 [11]): 0%
- IC50 (A549): 1700 nM
- viability at 3.3 µM (K562 [12]): 8.6%
- viability at 1.1 µM (K562 [13]): 17.3%
- Activity (U-937 [14]): 16.7%
- Activity (U-937 [15]): 7.77%
- Activity (U-937 [16]): 10.3%
- viability at 3.3 µM (U-937 [17]): 1.6%
- viability at 1 µM (U-937 [18]): 82.6%
- Activity (U-937 [19]): 9.76%
- Activity (U-937 [20]): 1.22%
